Reference: ChEMBL document CHEMBL1127130, “Peptidomimetic inhibitors of renin incorporating topographically modified isosteres spanning the P1( P3)-P1' sites” (Bioorg Med Chem Lett, 1993)

Target: T1, Renin (Homo sapiens) (UniProt P00797)
T1 sequence (whole entry): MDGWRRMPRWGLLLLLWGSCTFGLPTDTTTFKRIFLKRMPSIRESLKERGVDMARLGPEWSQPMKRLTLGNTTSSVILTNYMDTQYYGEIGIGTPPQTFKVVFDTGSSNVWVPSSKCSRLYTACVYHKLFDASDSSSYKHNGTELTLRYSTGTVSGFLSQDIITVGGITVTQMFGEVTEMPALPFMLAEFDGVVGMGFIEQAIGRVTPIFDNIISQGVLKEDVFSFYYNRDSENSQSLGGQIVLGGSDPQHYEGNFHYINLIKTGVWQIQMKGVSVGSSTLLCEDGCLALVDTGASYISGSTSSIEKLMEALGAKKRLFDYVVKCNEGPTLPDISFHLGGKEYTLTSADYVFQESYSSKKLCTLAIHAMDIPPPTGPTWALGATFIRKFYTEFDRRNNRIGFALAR
Experiment: The compound was evaluated for inhibitory activity against monkey plasma renin at concentration of […]
Type: cell-free
Details: Cercopithecidae, target entry is the homologue from another species

SMILES: C=CC[C@H](NC(=O)CNS(=O)(=O)N1CCOCC1)C(=O)N[C@@H](CC1CCC(CCC(C)C)CC1)[C@@H](O)[C@@H](O)CC(C)C (stereo partly specified)
- inhibition: 29%
